Measured values from patent US20130310344A1, “N-ACYLSULFONAMIDE APOPTOSIS PROMOTERS” (ASTRAZENECA AB, priority 2010, published 2013).
Where a name gives a salt, the structure may show the parent alone.

Tests used:
Bcl-XL = target: T1, Bcl-XL (Homo sapiens, UniProt Q07817); assay: Bcl-XL FP assay (competitive fluorescence polarization binding assay, FITC-Bim BH-3 peptide tracer); details: C-terminal 6×HIS tagged Bcl-XL (aa 1-209), 0.8 nM; 2 nM FITC-Bim peptide tracer
T1 construct: a C-terminal 6×HIS tagged Bcl-XL (aa 1-209); 6xHis (C)
T1 sequence (Q07817 1-209): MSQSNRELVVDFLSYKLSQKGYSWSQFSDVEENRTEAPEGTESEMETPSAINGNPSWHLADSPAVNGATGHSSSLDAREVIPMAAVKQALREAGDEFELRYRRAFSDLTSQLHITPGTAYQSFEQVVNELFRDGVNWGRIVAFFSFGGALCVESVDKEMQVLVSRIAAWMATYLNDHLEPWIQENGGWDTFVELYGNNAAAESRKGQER
Text: (§1) Bcl-xL and Bcl-2 FP binding affinity of compound(s) of Formulae (I), (I-a), (I-b), (I-c), (I-d) and/or (I-e) may be determined using a variety of known methods. One such assay is a sensitive and quantitative in vitro binding assay using fluorescence polarization (“FP”) described by Wang, J.-L.; Zhang, Z-J.; Choksi, S.; Sjam. S.; Lu, Z.; Croce, C. M.; Alnemri, E. S.; Komgold, R.; Huang, Z. Cell permeable Bcl-2 binding peptides: a chemical approach to apoptosis induction in tumor cells. Cancer Res. 2000, 60, 1498-1502).
(§2) Additionally, the binding affinity of compound(s) of Formulae (I), (I-a), (I-b), (I-c), (I-d) and/or (I-e) to Bcl-2 protein in vitro was determined by a competitive binding assay based on fluorescence polarization. For example, fluorescence polarization (“FP”) assays may be developed using a c-terminal 6×HIS tagged Bcl-2 (aa 1-204) and a C-terminal 6×HIS tagged Bcl-XL (aa 1-209). […] Dilutions of either Bcl-2 (1.3 nM) or Bcl-XL (0.8 nM) may be added to serial dilutions of antagonist and incubated for one hour prior to the addition of 2 nM of fluorescent peptide tracer (Anaspec, Fremont, Calif.) in the assay buffer. Final assay buffer conditions may be 20 mM HEPES, pH 7.5, 1 mM DTT, 0.005% Tween-20 and 50 mM NaCl. Samples may be read after 20-minute incubation. Fluorescence polarization values may be plotted as a function of the antagonist concentration.

Bcl-2 = target: T2, Bcl-2 (Homo sapiens, UniProt P10415); assay: Bcl-2 FP assay (competitive fluorescence polarization binding assay, FITC-Bim BH-3 peptide tracer); details: c-terminal 6×HIS tagged Bcl-2 (aa 1-204), 1.3 nM; 2 nM FITC-Bim peptide tracer
T2 construct: a c-terminal 6×HIS tagged Bcl-2 (aa 1-204); 6xHis (C)
T2 sequence (P10415 1-204): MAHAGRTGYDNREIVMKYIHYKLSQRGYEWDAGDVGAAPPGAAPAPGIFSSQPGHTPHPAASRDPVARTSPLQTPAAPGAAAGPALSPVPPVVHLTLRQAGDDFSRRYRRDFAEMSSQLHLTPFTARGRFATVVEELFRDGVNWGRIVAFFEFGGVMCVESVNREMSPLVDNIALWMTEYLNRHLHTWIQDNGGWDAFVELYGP
Text: as §1, §2

O=C(NS(=O)(=O)c1ccc(N[C@H](CCN2CCOCC2)CSc2ccccc2)c(S(=O)(=O)C(F)(F)F)c1)c1ccc(N2CCC([C@H](O)c3ccccc3-c3ccc(Cl)cc3)CC2)cc1 [Example 14, 4-(4-((S)-(4′-chlorobiphenyl-2-yl)(hydroxy)methyl)piperidin-1-yl)-N-(4-((R)-4-morpholino-1-(phenylthio)butan-2-ylamino)-3-(trifluoromethylsulfonyl)phenylsulfonyl)benzamide]
IC50 (Bcl-XL): 78 nM | IC50 (Bcl-2): 253 nM

CC(C)(C)OP(=O)(O)OCO[C@@H](c1ccccc1-c1ccc(Cl)cc1)C1CCN(c2ccc(C(=O)NS(=O)(=O)c3ccc(N[C@H](CCN4CCOCC4)CSc4ccccc4)c(S(=O)(=O)C(F)(F)F)c3)cc2)CC1 [Example 28, tert-Butyl((R)-(4′-chlorobiphenyl-2-yl)(1-(4-(4-((R)-4-morpholino-1-(phenylthio)butan-2-ylamino)-3-(trifluoromethylsulfonyl)phenylsulfonylcarbamoyl)-phenyl)piperidin-4-yl)methoxy)methyl hydrogen phosphate]
IC50 (Bcl-XL): 2 nM | IC50 (Bcl-2): 4 nM

CCN(CCO)CC[C@H](CSc1ccccc1)Nc1ccc(S(=O)(=O)NC(=O)c2ccc(N3CCC([C@@H](O)c4ccccc4-c4ccc(Cl)cc4)CC3)cc2)cc1S(=O)(=O)C(F)(F)F [Example 4, 4-(4-((R)-(4′-chlorobiphenyl-2-yl)(hydroxy)methyl)piperidin-1-yl)-N-(4-((R)-4-(ethyl(2-hydroxyethyl)amino)-1-(phenylthio)butan-2-ylamino)-3-(trifluoromethylsulfonyl)phenylsulfonyl)benzamide]
IC50 (Bcl-XL): 0.8 nM | IC50 (Bcl-2): 0.5 nM

COP(=O)(O)O[C@@H](c1ccccc1-c1ccc(Cl)cc1)C1CCN(c2ccc(C(=O)NS(=O)(=O)c3ccc(N[C@H](CCN4CCOCC4)CSc4ccccc4)c(S(=O)(=O)C(F)(F)F)c3)cc2)CC1 [Example 30, (R)-(4′-chlorobiphenyl-2-yl)(1-(4-(4-((R)-4-morpholino-1-(phenylthio)butan-2-ylamino)-3-(trifluoromethylsulfonyl)phenylsulfonylcarbamoyl)phenyl)piperidin-4-yl)methyl methyl hydrogen phosphate, hydrochloride salt]
IC50 (Bcl-XL): 1 nM | IC50 (Bcl-2): 1 nM

CCOP(=O)(OCC)O[C@@H](c1ccccc1-c1ccc(Cl)cc1)C1CCN(c2ccc(C(=O)NS(=O)(=O)c3ccc(N[C@H](CCN4CCOCC4)CSc4ccccc4)c(S(=O)(=O)C(F)(F)F)c3)cc2)CC1 [Example 29, (R)-(4′-chlorobiphenyl-2-yl)(1-(4-(4-((R)-4-morpholino-1-(phenylthio)butan-2-ylamino)-3-(trifluoromethylsulfonyl)phenylsulfonylcarbamoyl)phenyl)piperidin-4-yl)methyl diethyl phosphate, hydrochloride salt]
IC50 (Bcl-XL): 12 nM | IC50 (Bcl-2): 30 nM

CN(CCOP(=O)(O)O)CC[C@H](CSc1ccccc1)Nc1ccc(S(=O)(=O)NC(=O)c2ccc(N3CCC([C@@H](O)c4ccccc4-c4ccc(Cl)cc4)CC3)cc2)cc1S(=O)(=O)C(F)(F)F [Example 9, 2-(((R)-3-(4-(N-(4-(4-((R)-(4′-chlorobiphenyl-2-yl)(hydroxy)methyl)piperidin-1-yl)benzoyl)sulfamoyl)-2-(trifluoromethylsulfonyl)phenylamino)-4-(phenylthio)butyl)(methyl)amino)ethyl dihydrogen phosphate, hydrochloride salt]
IC50 (Bcl-XL): 1 nM | IC50 (Bcl-2): 0.9 nM

CCN(CC)C[C@@H]1COCCN1CC[C@H](CSc1ccccc1)Nc1ccc(S(=O)(=O)NC(=O)c2ccc(N3CCC([C@@H](O)c4ccccc4-c4ccc(Cl)cc4)CC3)cc2)cc1S(=O)(=O)C(F)(F)F [Example 21, 4-(4-((R)-(4′-chlorobiphenyl-2-yl)(hydroxy)methyl)piperidin-1-yl)-N-(4-((R)-4-((R)-3-((diethylamino)methyl)morpholino)-1-(phenylthio)butan-2-ylamino)-3-(trifluoromethylsulfonyl)phenylsulfonyl)benzamide]
IC50 (Bcl-XL): 0.5 nM | IC50 (Bcl-2): 0.3 nM
